Source: US7838553B2, “Benzopyran derivatives as potassium channel openers” (Janssen Pharmaceutica NV, priority 2005, dated 2010)

Target: T1, KATP channels (Homo sapiens, UniProt O60706+Q14654)
T1 construct: TE671 human medulloblastoma cells were obtained from ATCC; host or cells: TE671 human medulloblastoma cells
Assay: Potassium Channel Assay (FLIPR membrane potential)
Type: cell-based
Details: TE671 human medulloblastoma cells, Membrane Potential Assay Dye, room temperature, hyperpolarization from KATP channel opening
Protocol: TE671 human medulloblastoma cells were obtained from ATCC and grown in Dulbecco's modified Eagle's medium (DMEM) supplemented with 10% fetal bovine serum, 100 U/ml penicillin and […].
The day before testing, the cells were plated in black 96-well plates at 50 K/well. On the day of testing, the growth media was removed, then 100 μl of FLIPR buffer (20 mM HEPES, 120 mM NaCl, 2 mM KCl, 2 mM CaCl2, 1 mM MgCl2, 5 mM Glucose) and 100 μl of Membrane Potential Assay Dye (Molecular Devices) dissolved in FLIPR buffer were added to each well. The cells were incubated at room temperature for 15 to 30 min.
The effect of test compounds on KATP channels were evaluated on a fluorometric imaging plate reader (FLIPR, Molecular Devices) at room temperature. After a baseline period, 50 μl of 5× stock solution of test compound prepared in FLIPR buffer was added and fluorescent change was monitored for 3 minutes. After this reading, glyburide, a KATP channel blocker, was added to a final concentration of 5 μM to check the specificity of the test compound as a KATP channel openers. Hyperpolarization resulting from KATP channel opening was observed as a decrease in fluorescent intensity.
Representative compounds of the present invention were tested according to the procedure described above, with results as listed in Table 7, below.

T1 sequence (O60706 1-1549 isoform O60706-2): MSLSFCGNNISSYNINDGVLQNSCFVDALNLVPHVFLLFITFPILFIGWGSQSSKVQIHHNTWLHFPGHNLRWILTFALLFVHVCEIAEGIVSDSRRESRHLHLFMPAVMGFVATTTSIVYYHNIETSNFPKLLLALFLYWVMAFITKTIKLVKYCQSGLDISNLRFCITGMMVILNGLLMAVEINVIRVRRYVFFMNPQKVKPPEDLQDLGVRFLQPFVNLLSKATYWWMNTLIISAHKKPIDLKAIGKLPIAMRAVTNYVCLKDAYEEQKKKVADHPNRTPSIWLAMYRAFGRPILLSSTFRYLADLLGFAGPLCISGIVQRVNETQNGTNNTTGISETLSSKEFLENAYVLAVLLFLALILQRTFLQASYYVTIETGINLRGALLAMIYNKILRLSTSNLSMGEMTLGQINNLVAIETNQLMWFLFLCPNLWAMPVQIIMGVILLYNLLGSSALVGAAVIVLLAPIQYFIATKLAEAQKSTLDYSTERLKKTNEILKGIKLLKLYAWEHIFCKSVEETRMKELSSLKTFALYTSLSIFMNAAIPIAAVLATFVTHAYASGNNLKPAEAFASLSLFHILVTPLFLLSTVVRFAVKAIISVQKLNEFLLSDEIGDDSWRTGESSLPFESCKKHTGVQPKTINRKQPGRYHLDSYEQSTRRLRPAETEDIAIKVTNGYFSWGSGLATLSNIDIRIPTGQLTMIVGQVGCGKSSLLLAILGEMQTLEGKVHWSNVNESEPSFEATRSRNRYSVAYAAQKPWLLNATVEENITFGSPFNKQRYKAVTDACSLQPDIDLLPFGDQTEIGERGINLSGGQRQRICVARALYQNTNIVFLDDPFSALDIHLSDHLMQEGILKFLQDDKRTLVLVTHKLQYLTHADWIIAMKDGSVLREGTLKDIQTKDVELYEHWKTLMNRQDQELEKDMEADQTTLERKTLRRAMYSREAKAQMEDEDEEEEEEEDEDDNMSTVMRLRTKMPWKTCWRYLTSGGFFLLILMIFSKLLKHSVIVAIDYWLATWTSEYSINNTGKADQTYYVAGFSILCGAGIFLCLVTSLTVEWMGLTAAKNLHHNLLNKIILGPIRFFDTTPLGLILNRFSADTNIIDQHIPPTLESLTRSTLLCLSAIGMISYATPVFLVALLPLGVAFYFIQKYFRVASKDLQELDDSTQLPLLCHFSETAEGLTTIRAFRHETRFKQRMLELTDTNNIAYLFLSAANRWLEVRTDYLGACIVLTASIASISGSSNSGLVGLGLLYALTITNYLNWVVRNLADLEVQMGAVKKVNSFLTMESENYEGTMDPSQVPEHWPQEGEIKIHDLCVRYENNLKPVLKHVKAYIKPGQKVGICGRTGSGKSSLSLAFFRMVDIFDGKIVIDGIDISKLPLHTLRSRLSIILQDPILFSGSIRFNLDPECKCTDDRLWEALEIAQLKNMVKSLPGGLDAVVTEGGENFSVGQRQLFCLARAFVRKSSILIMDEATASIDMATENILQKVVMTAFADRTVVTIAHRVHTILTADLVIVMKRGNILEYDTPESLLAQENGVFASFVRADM
T1 sequence (Q14654 whole entry): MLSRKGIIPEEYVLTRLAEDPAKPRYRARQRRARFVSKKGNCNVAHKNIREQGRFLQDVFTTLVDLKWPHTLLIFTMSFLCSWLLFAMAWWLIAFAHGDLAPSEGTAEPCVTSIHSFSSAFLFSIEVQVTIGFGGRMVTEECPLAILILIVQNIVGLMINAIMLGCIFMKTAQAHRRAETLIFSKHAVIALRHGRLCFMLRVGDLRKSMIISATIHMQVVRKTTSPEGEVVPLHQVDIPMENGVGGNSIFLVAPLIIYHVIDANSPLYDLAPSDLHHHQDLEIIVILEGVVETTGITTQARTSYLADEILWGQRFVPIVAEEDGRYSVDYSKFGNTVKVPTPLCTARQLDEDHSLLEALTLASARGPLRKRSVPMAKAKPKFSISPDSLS

Row | Compound | EC50 [µM]
1 | CC1(C)Oc2ccncc2[C@@H](n2c(=O)ccn2-c2ccc(Cl)cc2)[C@@H]1O (racemic) [Compound 110, 1-(4-Chloro-phenyl)-2-(3-hydroxy-2,2-dimethyl-3,4-dihydro-2H-pyrano[32-c]pyridin-4-yl)-1,2-dihydro-pyrazol-3-one] | > 30
2 | CC1(C)Oc2ccc(C#N)cc2[C@@H](Sc2ncc[nH]2)[C@@H]1O [Compound 25, (3S,4R)-3-Hydroxy-4-(2H-imidazol-2-ylsulfanyl)-2,2-dimethyl-chroman-6-carbonitrile] | 0.84
3 | CC1(C)Oc2ccc(S(=O)(=O)c3ccccc3)cc2[C@@H](Oc2noc3ccc(Cl)cc23)[C@@H]1O [Compound 75, (3S,4R)-6-Benzenesulfonyl-4R-(5-chloro-benzo[d]isoxazol-3-yloxy)-2,2-dimethyl-chroman-3S-ol] | > 30
